Experimental data as given in patent US20240190849A1, “AMINOPYRIMIDINE COMPOUNDS AND METHODS OF THEIR USE” (TYRA BIOSCIENCES, INC., priority 2021, published 2024).

Legend:
FGFR1 = target: T1, FGFR1 (Homo sapiens, UniProt P11362); assay: Kinase binding assay (kinase-tagged T7 phage, affinity beads, qPCR readout), FGFR1; details: FGFR binding data
T1 construct: made in house; host or cells: E. coli derived from BL21, infected with T7 phage
Procedure, shortened: (§1)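 Kd values derive from Hill-equation fits (slope −1, Levenberg-Marquardt) of qPCR-quantified kinase recovered from ligand-coated beads. Compounds ran as 11-point 3-fold series, final DMSO 0.9%, with 1 hour room-temperature binding.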

FGFR3 = target: T2, FGFR3 (Homo sapiens, UniProt P22607); assay: Kinase binding assay (kinase-tagged T7 phage, affinity beads, qPCR readout), FGFR3; details: FGFR binding data
T2 construct: made in house; host or cells: E. coli derived from BL21, infected with T7 phage
Procedure, shortened: as §1

[1] = test system: SNU-16 (Gastric Carcinoma), FGFR2 amplification; assay: Cancer cell viability assay (Cell Titer-Glo), SNU-16; type: cell-based; details: Homo sapiens, SNU-16 cells, 72 hours, read-out: SNU16 FGFR2 (IC50 nM)
Source text: RT112/84, UM-UC-14, SNU-16 and KG-1 Cancer Cell Line Cell Viability Assays
To detect the change of intracellular ATP by Cell Titer-Glo@ and to evaluate the inhibitory effect of the compounds on cancer cell lines by determining the in vitro IC50 value of the compounds.
Cell Titer-Glo@ 2.0 Luminescent cell viability assay reagent was purchased from Promega (Madison, WI). RT112/84, SNU-16, and KG-1 cell lines were purchased from American Type Culture Collection (Manassas, VA). UM-UC-14 cell line was purchased from Sigma (St. Louis, MO). RT112/84, UM-UC-14, SNU-16, and KG-1 cells were cultured in RPMI1640 media supplemented with 10% fetal bovine serum. Cultures were maintained at 37° C. in a humidified atmosphere of 5% CO2 and 95% air.
Cell Viability Assay Procedure: Cells were plated in 96-well clear bottom/white plates (Corning #3903) at 10,000 cells/well in 100 μl of media, incubated overnight. The next day, test compound DMSO stock solutions were made at 10 mM and 2 μM final concentration. Compounds were then added to cells in a 9-dose, […] dilution series starting at 30 μM with an HP 300e Digital Dispenser (each dose was applied in triplicate). DMSO was backfilled to each well up to 301 nL total volume of test compound+DMSO, and a total of 301 nL DMSO was added to a control/no test compound well in triplicate. The cells in cell culture plates were incubated with the compounds at 37° C. and 5% CO2 for 72 hours. Then 50 μl of Cell Titer Glo 2.0 reagent was added to each well of the cell culture plates. The contents were covered from light and mixed on an orbital shaker at room temperature for 10 min. Luminescence was recorded by a Synergy H1 Microplate Reader (Biotek, Winooski, VT). Cells were assessed as a percentage of DMSO only treated control cells. Curves were plotted and IC50 values were calculated using the GraphPad Prism 8 program based on a sigmoidal dose-response equation (4 parameter).

FGFR2 = target: T3, FGFR2 (Homo sapiens, UniProt P21802); assay: Kinase binding assay (kinase-tagged T7 phage, affinity beads, qPCR readout), FGFR2; details: FGFR binding data
T3 construct: made in house; host or cells: E. coli derived from BL21, infected with T7 phage
Procedure, shortened: as §1

FGFR3 (V555M) = target: T4, FGFR3 (V555M) (Homo sapiens, UniProt P22607, V555M); assay: Kinase binding assay (kinase-tagged T7 phage, affinity beads, qPCR readout), FGFR3 (V555M); details: FGFR binding data
T4 construct: made in house; host or cells: E. coli derived from BL21, infected with T7 phage
Procedure, shortened: as §1

T4 sequence (P22607 23-806 V555M): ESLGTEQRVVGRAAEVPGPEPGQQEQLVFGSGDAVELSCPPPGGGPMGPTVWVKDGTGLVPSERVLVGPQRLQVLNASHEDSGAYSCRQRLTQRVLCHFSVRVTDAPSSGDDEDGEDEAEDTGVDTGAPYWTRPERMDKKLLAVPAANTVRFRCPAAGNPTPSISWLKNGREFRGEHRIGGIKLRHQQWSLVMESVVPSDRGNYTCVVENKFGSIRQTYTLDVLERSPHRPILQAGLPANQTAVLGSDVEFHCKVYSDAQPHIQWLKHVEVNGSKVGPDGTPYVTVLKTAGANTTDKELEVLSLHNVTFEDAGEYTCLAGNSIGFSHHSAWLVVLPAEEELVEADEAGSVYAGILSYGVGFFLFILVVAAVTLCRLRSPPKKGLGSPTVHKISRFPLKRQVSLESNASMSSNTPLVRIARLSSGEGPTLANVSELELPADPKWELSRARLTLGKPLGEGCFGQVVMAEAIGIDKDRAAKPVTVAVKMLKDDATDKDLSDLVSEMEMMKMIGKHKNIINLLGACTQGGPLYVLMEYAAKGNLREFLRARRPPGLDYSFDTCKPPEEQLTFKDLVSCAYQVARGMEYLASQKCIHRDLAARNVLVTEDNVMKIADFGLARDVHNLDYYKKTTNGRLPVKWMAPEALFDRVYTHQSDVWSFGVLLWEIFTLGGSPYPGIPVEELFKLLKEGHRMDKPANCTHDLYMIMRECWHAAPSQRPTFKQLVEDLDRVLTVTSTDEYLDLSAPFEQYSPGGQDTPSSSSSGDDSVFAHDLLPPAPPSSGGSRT
T2 sequence (P22607 23-806): as the sequence (P22607 23-806 V555M) above, with M533V counted along it
T3 sequence (P21802 22-821): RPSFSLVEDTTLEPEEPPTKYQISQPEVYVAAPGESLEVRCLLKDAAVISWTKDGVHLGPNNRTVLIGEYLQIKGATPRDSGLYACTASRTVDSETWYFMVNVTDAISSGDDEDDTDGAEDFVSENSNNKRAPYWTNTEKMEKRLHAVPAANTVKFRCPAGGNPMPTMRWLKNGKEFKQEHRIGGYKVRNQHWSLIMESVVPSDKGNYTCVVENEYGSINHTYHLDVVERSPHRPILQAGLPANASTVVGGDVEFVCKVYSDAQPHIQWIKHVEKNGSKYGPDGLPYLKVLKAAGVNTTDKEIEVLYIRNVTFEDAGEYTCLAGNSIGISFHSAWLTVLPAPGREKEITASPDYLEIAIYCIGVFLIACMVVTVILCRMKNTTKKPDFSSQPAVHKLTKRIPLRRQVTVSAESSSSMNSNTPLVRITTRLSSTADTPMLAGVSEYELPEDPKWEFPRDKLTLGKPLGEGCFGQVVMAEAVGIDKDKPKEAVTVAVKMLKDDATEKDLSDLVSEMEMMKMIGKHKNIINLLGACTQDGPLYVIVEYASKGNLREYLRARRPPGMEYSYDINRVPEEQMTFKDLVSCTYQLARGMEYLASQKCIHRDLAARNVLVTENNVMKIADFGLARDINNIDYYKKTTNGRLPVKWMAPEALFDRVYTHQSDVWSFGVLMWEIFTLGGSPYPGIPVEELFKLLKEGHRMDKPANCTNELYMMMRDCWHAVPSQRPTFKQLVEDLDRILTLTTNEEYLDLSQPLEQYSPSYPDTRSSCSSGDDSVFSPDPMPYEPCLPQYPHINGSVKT
T1 sequence (P11362 22-822): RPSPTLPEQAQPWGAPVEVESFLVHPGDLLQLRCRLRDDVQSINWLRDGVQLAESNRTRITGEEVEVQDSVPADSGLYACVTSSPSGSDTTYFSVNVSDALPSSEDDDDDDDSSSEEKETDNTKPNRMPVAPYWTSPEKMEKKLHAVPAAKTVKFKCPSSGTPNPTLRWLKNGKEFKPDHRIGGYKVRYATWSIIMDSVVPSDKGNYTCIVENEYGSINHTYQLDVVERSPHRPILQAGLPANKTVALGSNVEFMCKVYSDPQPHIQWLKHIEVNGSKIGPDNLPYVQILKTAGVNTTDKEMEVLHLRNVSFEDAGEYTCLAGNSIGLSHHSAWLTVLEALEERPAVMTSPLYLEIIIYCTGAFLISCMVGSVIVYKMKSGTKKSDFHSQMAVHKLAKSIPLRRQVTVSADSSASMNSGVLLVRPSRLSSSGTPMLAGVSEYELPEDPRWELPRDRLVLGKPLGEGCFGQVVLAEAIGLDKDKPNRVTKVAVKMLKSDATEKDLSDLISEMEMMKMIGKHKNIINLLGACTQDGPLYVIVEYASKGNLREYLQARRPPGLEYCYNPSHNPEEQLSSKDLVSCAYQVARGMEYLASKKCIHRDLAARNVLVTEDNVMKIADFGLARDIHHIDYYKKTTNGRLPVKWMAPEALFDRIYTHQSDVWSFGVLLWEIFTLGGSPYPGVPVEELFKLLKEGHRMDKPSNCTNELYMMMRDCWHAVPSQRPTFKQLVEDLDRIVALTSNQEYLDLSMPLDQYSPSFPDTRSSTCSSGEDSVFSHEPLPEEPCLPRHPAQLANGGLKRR

Kd (FGFR1) [nM]	Kd (FGFR3) [nM]	IC50 [1] [nM]	Kd (FGFR2) [nM]	Kd (FGFR3 (V555M)) [nM]	Compound
250 to 1000	0.1 to 100	0.1 to 100	100 to 250	100 to 250	C=CC(=O)Nc1ccc2c(-c3ccnc(Nc4cc(C)n(C)n4)n3)cn(C)c2c1 [Example 103, N-[3-[2-[(1,5-dimethylpyrazol-3-yl)amino]pyrimidin-4-yl]-1-methyl-indol-6-yl]prop-2-enamide]
0.1 to 100	0.1 to 100	0.1 to 100	0.1 to 100	0.1 to 100	C=CC(=O)Nc1cnc2c(c1)c(C)cn2-c1nc(Nc2ccn(C)n2)ncc1C [Example 97, N-[3-methyl-1-[5-methyl-2-[(1-methylpyrazol-3-yl)amino]pyrimidin-4-yl]pyrrolo[2,3-b]pyridin-5-yl]prop-2-enamide]
100 to 250	0.1 to 100	0.1 to 100	0.1 to 100	0.1 to 100	Cc1nn(C)cc1Nc1ncc(Cl)c(-n2cc(C)c3cc(NC(=O)/C=C/CN(C)C)cnc32)n1 [Example 180, (E)-N-[1-[5-chloro-2-[(1,3-dimethylpyrazol-4-yl)amino]pyrimidin-4-yl]-3-methyl-pyrrolo[2,3-b]pyridin-5-yl]-4-(dimethylamino)but-2-enamide]
0.1 to 100	0.1 to 100	0.1 to 100	0.1 to 100	0.1 to 100	C=CC(=O)Nc1ccc2c(c1)c(C)cn2-c1nc(Nc2cc(C)n(C)n2)ncc1C [Example 102, N-[1-[2-[(1,5-dimethylpyrazol-3-yl)amino]-5-methyl-pyrimidin-4-yl]-3-methyl-indol-5-yl]prop-2-enamide]
0.1 to 100	0.1 to 100	0.1 to 100	0.1 to 100	0.1 to 100	C=CC(=O)Nc1cnc2c(c1)c(C)cn2-c1nc(Nc2cnn(CCO)c2)ncc1C [Example 125, N-[1-[2-[[1-(2-hydroxyethyl)pyrazol-4-yl]amino]-5-methyl-pyrimidin-4-yl]-3-methyl-pyrrolo[2,3-b]pyridin-5-yl]prop-2-enamide]
0.1 to 100	0.1 to 100	0.1 to 100	0.1 to 100	0.1 to 100	C=CC(=O)Nc1ccc2c(-c3ccnc(Nc4cnn(C5CC5)c4)n3)cn(C)c2c1 [Example 178, N-[3-[2-[(1-cyclopropylpyrazol-4-yl)amino]pyrimidin-4-yl]-1-methyl-indol-6-yl]prop-2-enamide]
0.1 to 100	0.1 to 100	0.1 to 100	0.1 to 100	0.1 to 100	C=CC(=O)Nc1ccc2c(-c3nc(Nc4cnn(CCO)c4)ncc3F)cn(C)c2c1 [Example 128, N-[3-[5-fluoro-2-[[1-(2-hydroxyethyl)pyrazol-4-yl]amino]pyrimidin-4-yl]-1-methyl-indol-6-yl]prop-2-enamide]
0.1 to 100	0.1 to 100	0.1 to 100	0.1 to 100	0.1 to 100	C=CC(=O)Nc1ccc2c(c1)c(C)cn2-c1nc(Nc2cnn(CC(C)O)c2)ncc1F (stereo not shown) [Example 158, N-[1-[5-fluoro-2-[[1-(2-hydroxypropyl)pyrazol-4-yl]amino]pyrimidin-4-yl]-3-methyl-indol-5-yl]prop-2-enamide]
100 to 250	0.1 to 100	0.1 to 100	0.1 to 100	0.1 to 100	C=CC(=O)Nc1ccc2c(c1)c(C)cn2-c1nc(Nc2cn(C(F)F)nc2C)ncc1F [Example 149, N-[1-[2-[[1-(difluoromethyl)-3-methyl-pyrazol-4-yl]amino]-5-fluoro-pyrimidin-4-yl]-3-methyl-indol-5-yl]prop-2-enamide]
100 to 250	0.1 to 100		0.1 to 100	0.1 to 100	C=CC(=O)Nc1ccc2c(c1)c(C)cn2-c1nc(Nc2ccc3ncnn3c2)ncc1Cl [Example 47, N-[1-[5-chloro-2-([1,2,4]triazolo[1,5-a]pyridin-6-ylamino)pyrimidin-4-yl]-3-methyl-indol-5-yl]prop-2-enamide]
> 1000	> 1000		> 1000	> 1000	CC#CC(=O)Nc1cnc2c(c1)c(C)cn2-c1nc(Nc2ccnn2C)ncc1F [Example 134, N-[1-[5-fluoro-2-[(2-methylpyrazol-3-yl)amino]pyrimidin-4-yl]-3-methyl-pyrrolo[2,3-b]pyridin-5-yl]but-2-ynamide]
100 to 250	0.1 to 100		0.1 to 100	0.1 to 100	C=CC(=O)Nc1ccc2c(-c3ccnc(Nc4cn(CC(F)F)nc4C)n3)cn(C)c2c1 [Example 170, N-[3-[2-[[1-(2,2-difluoroethyl)-3-methyl-pyrazol-4-yl]amino]pyrimidin-4-yl]-1-methyl-indol-6-yl]prop-2-enamide]
250 to 1000	100 to 250		250 to 1000	250 to 1000	Cc1cn(-c2nc(Nc3cnn(C[C@@H](C)O)c3)ncc2F)c2ncc(NC(=O)/C=C/CN3CCOCC3)cc12 [Example 197, (E)-N-[1-[5-fluoro-2-[[1-[(2R)-2-hydroxypropyl]pyrazol-4-yl]amino]pyrimidin-4-yl]-3-methyl-pyrrolo[2,3-b]pyridin-5-yl]-4-morpholino-but-2-enamide]
0.1 to 100	0.1 to 100		0.1 to 100	0.1 to 100	C=CC(=O)Nc1ccc2c(-c3nc(Nc4ccc(N5CCN(C)CC5)nc4)ncc3Cl)cn(C)c2c1 [Example 59, N-[3-[5-chloro-2-[[6-(4-methylpiperazin-1-yl)-3-pyridyl]amino]pyrimidin-4-yl]-1-methyl-indol-6-yl]prop-2-enamide]
> 1000	> 1000		> 1000	> 1000	C=CC(=O)Nc1ccc2c(ccn2-c2nc(Nc3ccccc3OCC)ncc2Cl)c1 [Example 20, N-[1-[5-chloro-2-(2-ethoxyanilino)pyrimidin-4-yl]indol-5-yl]prop-2-enamide]
0.1 to 100	0.1 to 100		0.1 to 100	0.1 to 100	C=CC(=O)Nc1ccc2c(c1)c(C)cn2-c1ncnc(Nc2cnn(C)c2)n1 [Example 218, N-[3-methyl-1-[4-[(1-methylpyrazol-4-yl)amino]-1,3,5-triazin-2-yl]indol-5-yl]prop-2-enamide]
0.1 to 100	0.1 to 100		0.1 to 100	0.1 to 100	C=CC(=O)Nc1ccc2c(c1)c(C)cn2-c1nc(Nc2ccc(N3CCOCC3)c(OC)c2)ncc1C [Example 46, N-[1-[2-(3-methoxy-4-morpholino-anilino)-5-methyl-pyrimidin-4-yl]-3-methyl-indol-5-yl]prop-2-enamide]
100 to 250	0.1 to 100		250 to 1000	100 to 250	C=CC(=O)Nc1ccc2c(-c3ccnc(Nc4ccn(CCO)n4)n3)cn(C)c2c1 [Example 101, N-[3-[2-[[1-(2-hydroxyethyl)pyrazol-3-yl]amino]pyrimidin-4-yl]-1-methyl-indol-6-yl]prop-2-enamide]
> 1000	> 1000		> 1000	> 1000	C=CC(=O)Nc1ccc2c(ccn2-c2nc(Nc3ccccc3OCCN3CCOCC3)ncc2Cl)c1 [Example 13, N-[1-[5-chloro-2-[2-(2-morpholinoethoxy)anilino]pyrimidin-4-yl]indol-5-yl]prop-2-enamide]
